Results on one compound are retold here after publication PMC8587475, “Black Bean (Phaseolus vulgaris L.) Polyphenolic Extract Exerts Antioxidant and Antiaging Potential” (Molecules, 2021).

This test concerns the target T1, elastase from porcine pancreas (EC 3.4.21.36) (Sus scrofa, UniProt P00772).
T1 construct: gene CELA1; commercial native enzyme from porcine pancreas (Sigma-Aldrich), mature; docking model PDB 1BRU (elastase 2) is not the assay sample
Put plainly: N-succinyl-Ala-Ala-Ala-p-nitroanilide hydrolysis, absorbance at […] nm. Format: biochemical.

T1 sequence (P00772 27-266): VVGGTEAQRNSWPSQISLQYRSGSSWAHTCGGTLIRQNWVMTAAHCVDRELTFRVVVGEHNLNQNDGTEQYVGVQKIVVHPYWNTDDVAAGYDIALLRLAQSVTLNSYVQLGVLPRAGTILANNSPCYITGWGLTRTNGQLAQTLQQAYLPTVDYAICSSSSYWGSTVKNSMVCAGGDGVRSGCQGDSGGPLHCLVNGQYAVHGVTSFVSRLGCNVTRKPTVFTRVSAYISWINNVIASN

`Oc1cc(O)c2c(c1)OC(c1ccc(O)c(O)c1)C(O)C2` (racemic) [catechin] showed an IC50 of 18.4 µM.

A word on the IC50: it is the point on the concentration scale where inhibition reaches its midpoint. A high value points to weaker potency.
